For eight compounds, IC50 and EC50 results are on record in patent US20250346616A1 (DIZAL (JIANGSU) PHARMACEUTICAL CO., LTD., priority 2022, published 2025).

The target in assay [1] is Recombinant ROCK1 (Homo sapiens (Human), UniProt Q13464). The assay is described as follows: Lance Ultra Kinase Assay, ROCK1 inhibition. Type of assay: biochemical. As to conditions: ATP at Km, 30 min pre-incubation, 1 h reaction.
Assay [2] addresses Recombinant ROCK2 (Homo sapiens (Human), UniProt O75116). The assay is described as follows: Lance Ultra Kinase Assay, ROCK2 inhibition. In kind it is biochemical. Conditions: ATP at Km, 30 min pre-incubation, 1 h reaction.
Assay [3] concerns pMLC2. The assay is described as follows: Cellular PD assay, pMLC2 in PASMC (western blot). In kind it is cell-based. Conditions: PASMC, 0.5 h; Human Pulmonary Artery Smooth Muscle Cells, 30 min incubation. As to the method: (§1) PASMC (Human Pulmonary Artery Smooth Muscle Cells) were grown in Smooth Muscle Cell Growth medium (Promocell #C-22162). The cells were resuspended at 3×10^5 cells per well in 6-well plate in Smooth Muscle Cell Growth medium (Promocell #C-22162) and incubated compound concentration range: (10000/1111/333/111/37/12.3/4.1/0.41/0 nM) for 30 min.
(§2) Cells were then placed on ice and washed with ice-cold PBS. Cell lysates were prepared with 2×SDS. Separate proteins by SDS-PAGE 2 hr, transfer of proteins form gel to membrane 90 min, Blocking the membrane with 5% milk 1 hr and incubation in primary antibody overnight at 4° C., Incubate the membrane in HRP-conjugated secondary antibody diluted in blocking buffer (1:2000) for 1 hour at room temperature. Detection using Amersham ECL plus western blotting detection system (LAS4000). The purified product was analysed by SDS PAGE and the amount of target protein calculated by gray scanning by Multi-Gauge V3.0 software.

The test system of assay [4] is pMYPT1. Nature of the assay: Cellular PD assay, pMYPT1 in PASMC (western blot). In kind it is cell-based. As to conditions: PASMC, 0.5 h; Human Pulmonary Artery Smooth Muscle Cells, 30 min incubation. As to the method:
as §1, §2

Assay [5] relates to HepG2 cells. Nature of the assay: Cell-based phospholipidosis assay (LipidTOX Red). As to conditions: Homo sapiens, 24 h, LipidTOX Red dye. As to the method:
HepG2 cells were dispensed into Collagen I-coated 96-well black wall/clear bottom assay plates at 5000 cells/90 μL/well.
The assay plates were then incubated at 37° C. for 24 h, […] of 8% paraformaldehyde (4% final) fixative solution containing 8 μg/ml Hoechst 33342 (4 ug/mL final) in DPBS was added to each well. After incubation at room temperature for 25 min, the assay plates were washed with DPBS. The assay plates were sealed and stored at 4° C. before imaging.
The fluorescence intensities (595 nm excitation, 615 nm emission for LipidTOX Red; 352 nm excitation, 461 nm emission for Hoechst 33342) were measured using an High Content Screening System (Operetta, PerkinElmer) with a 10×Fluor objective. […] Average intensities were subjected to Prism and EC50 were calculated.

Sequence of Recombinant ROCK2 (O75116 whole entry): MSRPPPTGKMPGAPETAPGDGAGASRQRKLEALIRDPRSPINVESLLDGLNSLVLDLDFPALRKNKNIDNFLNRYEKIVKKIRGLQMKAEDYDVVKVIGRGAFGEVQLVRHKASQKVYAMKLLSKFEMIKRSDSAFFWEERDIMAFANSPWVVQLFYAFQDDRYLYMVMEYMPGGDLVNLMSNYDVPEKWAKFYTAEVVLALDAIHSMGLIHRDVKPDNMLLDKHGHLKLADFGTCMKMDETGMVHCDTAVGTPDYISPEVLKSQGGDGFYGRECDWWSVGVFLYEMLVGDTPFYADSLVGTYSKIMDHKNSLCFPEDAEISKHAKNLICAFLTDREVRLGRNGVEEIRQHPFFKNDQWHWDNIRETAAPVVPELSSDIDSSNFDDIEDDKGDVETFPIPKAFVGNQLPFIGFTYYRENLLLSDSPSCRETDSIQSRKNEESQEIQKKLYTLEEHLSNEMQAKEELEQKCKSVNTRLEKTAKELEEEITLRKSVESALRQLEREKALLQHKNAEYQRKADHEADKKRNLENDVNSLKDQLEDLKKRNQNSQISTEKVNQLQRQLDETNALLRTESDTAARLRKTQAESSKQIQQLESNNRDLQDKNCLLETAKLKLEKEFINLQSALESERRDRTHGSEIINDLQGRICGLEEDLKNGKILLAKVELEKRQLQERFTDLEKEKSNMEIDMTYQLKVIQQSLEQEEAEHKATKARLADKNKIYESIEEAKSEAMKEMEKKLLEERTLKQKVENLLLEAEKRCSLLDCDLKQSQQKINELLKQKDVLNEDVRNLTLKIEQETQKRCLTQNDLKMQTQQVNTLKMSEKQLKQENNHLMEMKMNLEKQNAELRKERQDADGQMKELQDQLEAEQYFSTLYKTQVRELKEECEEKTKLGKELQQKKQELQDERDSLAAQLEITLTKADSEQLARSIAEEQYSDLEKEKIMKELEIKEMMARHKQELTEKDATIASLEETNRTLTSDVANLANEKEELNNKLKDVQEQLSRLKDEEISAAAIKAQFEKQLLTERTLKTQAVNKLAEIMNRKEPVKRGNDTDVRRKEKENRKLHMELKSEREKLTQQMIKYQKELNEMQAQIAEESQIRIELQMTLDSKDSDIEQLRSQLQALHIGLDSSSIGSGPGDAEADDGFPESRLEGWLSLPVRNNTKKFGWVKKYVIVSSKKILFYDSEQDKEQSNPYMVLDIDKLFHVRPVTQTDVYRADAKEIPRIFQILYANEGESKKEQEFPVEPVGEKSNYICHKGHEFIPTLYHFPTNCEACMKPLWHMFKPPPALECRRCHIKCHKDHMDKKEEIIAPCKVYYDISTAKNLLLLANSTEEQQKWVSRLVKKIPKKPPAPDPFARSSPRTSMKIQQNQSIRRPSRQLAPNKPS
Sequence of Recombinant ROCK1 (Q13464 whole entry): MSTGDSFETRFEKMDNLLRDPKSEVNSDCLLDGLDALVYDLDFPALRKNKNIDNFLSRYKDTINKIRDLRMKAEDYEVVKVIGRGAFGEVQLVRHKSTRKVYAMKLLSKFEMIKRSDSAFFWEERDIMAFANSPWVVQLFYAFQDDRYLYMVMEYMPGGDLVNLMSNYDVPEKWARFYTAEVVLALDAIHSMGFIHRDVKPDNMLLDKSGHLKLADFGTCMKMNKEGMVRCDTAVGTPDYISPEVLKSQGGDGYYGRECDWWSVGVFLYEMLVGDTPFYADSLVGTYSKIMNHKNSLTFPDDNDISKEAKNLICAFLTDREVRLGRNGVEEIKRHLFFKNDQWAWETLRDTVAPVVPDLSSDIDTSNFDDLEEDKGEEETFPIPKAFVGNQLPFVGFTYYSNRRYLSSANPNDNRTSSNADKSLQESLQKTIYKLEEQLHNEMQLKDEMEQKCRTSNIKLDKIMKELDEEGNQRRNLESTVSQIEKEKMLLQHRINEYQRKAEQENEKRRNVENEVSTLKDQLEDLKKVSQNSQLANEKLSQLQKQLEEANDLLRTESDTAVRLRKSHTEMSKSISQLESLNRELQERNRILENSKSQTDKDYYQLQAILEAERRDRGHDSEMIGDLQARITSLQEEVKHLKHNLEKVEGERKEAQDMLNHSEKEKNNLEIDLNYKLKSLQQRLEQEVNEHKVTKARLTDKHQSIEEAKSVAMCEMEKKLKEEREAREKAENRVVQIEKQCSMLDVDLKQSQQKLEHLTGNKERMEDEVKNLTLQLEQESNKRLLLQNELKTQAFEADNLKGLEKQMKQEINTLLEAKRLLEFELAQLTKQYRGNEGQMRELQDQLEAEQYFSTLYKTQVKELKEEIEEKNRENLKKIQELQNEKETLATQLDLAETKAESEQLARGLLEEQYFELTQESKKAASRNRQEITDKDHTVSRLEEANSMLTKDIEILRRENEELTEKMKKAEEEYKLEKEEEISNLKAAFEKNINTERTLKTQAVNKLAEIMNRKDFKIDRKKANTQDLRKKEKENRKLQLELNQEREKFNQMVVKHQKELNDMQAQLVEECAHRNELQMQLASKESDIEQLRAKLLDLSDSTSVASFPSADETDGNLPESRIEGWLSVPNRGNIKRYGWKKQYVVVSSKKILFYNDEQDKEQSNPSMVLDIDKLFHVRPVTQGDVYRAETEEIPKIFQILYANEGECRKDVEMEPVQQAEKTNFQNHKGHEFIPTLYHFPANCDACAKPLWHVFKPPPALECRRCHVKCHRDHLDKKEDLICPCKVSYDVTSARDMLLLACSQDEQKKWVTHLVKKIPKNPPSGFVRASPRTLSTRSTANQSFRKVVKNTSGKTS

For orientation: IC50 means the concentration at which inhibition is half-maximal. Usually EC50 stands for the concentration needed to bring the measured effect to its halfway point. A lower EC50 goes with a more potent agent. As to `NCC(C(=O)Nc1cccc2c(-c3cn[nH]c3)c[nH]c12)c1ccc(CO)cc1` (single isomer, unassigned) [Example 3, N-(3-(1H-pyrazol-4-yl)-1H-indol-7-yl)-3-amino-2-(4-(hydroxymethyl)phenyl)propanamide], the IC50 in assay [1] was found to be 0.33 nM; in assay [2], 0.17 nM; in assay [3], 46 nM; in assay [4], 99 nM. This compound also returned an EC50 in assay [5] of more than 200 µM.
The matching figures for `COc1cccc(C(CN)C(=O)Nc2cccc3c(-c4cn[nH]c4)c[nH]c23)c1` (single isomer, unassigned) [Example 18, N-(3-(1H-pyrazol-4-yl)-1H-indol-7-yl)-3-amino-2-(3-methoxyphenyl)propanamide]: 0.3 nM, 0.14 nM, 4.2 nM, 5.6 nM and 10.9 µM.
The matching figures for `N#Cc1cccc(C(CN)C(=O)Nc2cccc3c(-c4cn[nH]c4)c[nH]c23)c1` (single isomer, unassigned) [Example 20, N-(3-(1H-pyrazol-4-yl)-1H-indol-7-yl)-3-amino-2-(3-cyanophenyl)propanamide]: 2.8 nM, 1.3 nM, 38 nM, 41 nM and more than 200 µM.
The matching figures for `NCC(C(=O)Nc1cccc2c(-c3cn[nH]c3)c[nH]c12)C1CCOCC1` (single isomer, unassigned) [Example 26, N-(3-(1H-pyrazol-4-yl)-1H-indol-7-yl)-3-amino-2-(tetrahydro-2H-pyran-4-yl)propanamide]: 1.4 nM, 0.96 nM, 85 nM, 153 nM and more than 200 µM.
Regarding `NCC(C(=O)Nc1cccc2c(-c3cn[nH]c3)c[nH]c12)c1cccnc1` (single isomer, unassigned) [Example 32, N-(3-(1H-pyrazol-4-yl)-1H-indol-7-yl)-3-amino-2-(pyridin-3-yl)propanamide], the IC50 was found to be 0.55 nM in assay [1], 0.24 nM in assay [2], 42 nM in assay [3] and 62 nM in assay [4]. For the same compound, the concentration for a half-maximal effect (EC50) in assay [5] was more than 200 µM.
For `CN1CCN(CC(C(=O)Nc2cccc3c(-c4cn[nH]c4)c[nH]c23)c2ccccc2)CC1` (single isomer, unassigned) [Example 38, N-(3-(1H-pyrazol-4-yl)-1H-indol-7-yl)-3-(4-methylpiperazin-1-yl)-2-phenylpropanamide], the IC50 was determined as 0.44 nM in assay [1], 0.26 nM in assay [2], 8.2 nM in assay [3] and 13 nM in assay [4]. The compound further came in with an EC50 in assay [5] of 6.23 µM.
The matching figures for `N#Cc1ccc(C(CN)C(=O)Nc2cccc3c(-c4cn[nH]c4)c[nH]c23)cc1` (single isomer, unassigned) [Example 59, N-(3-(1H-pyrazol-4-yl)-1H-indol-7-yl)-3-amino-2-(4-cyanophenyl)propanamide]: 2.7 nM, 0.83 nM, 61 nM, 155 nM and more than 66.6 µM.
For `COc1cccc([C@@H](N)C(=O)Nc2cccc3c(-c4cn[nH]c4)c[nH]c23)c1` [Example 42, (2R)-2-amino-2-(3-methoxyphenyl)-N-[3-(1H-pyrazol-4-yl)-1H-indol-7-yl]acetamide], the IC50 was found to be 0.18 nM in assay [1], 0.1 nM in assay [2], 3 nM in assay [3] and 2.8 nM in assay [4]. The same compound yielded an EC50 in assay [5] of more than 200 µM.
